Active and inactive are the calls of the source. The rule behind the calls is not given here.
Experiments:
[1] = test system: HepG2; test: Induction of apoptosis in human HepG2 cells assessed as activation of cleaved caspase 3 expression at 0.7 uM incubated for 24 hrs by Western blot analysis; assay type: functional, cell-based
[2] = test system: HepG2; test: Cytotoxicity against human HepG2 cells assessed as cell growth inhibition measured after 48 hrs by MTT assay; assay type: functional
[3] = test system: BALB/3T3; test: (§1) Cytotoxicity against mouse BALB/3T3 cells assessed as cell growth inhibition measured after 24 hrs by neutral red uptake assay; assay type: cell-based; conditions: balb/3t3, 24 h
[4] = as §1; assay type: cell-based; conditions: BALB/3T3 cells
[5] = test system: HCT-116; test: Induction of cell cycle arrest in human HCT-116 cells assessed as decrease in phospho-Rb expression at 45 uM measured after 24 hrs by Western blot analysis; assay type: functional, cell-based
[6] = test system: HepG2; test: Induction of cell cycle arrest in human HepG2 cells assessed as effect of phospho-Rb expression at 45 uM measured after 24 hrs by Western blot analysis; assay type: functional, cell-based
[7] = test system: THP-1; test: Cytotoxicity against human THP-1 cells assessed as cell growth inhibition measured after 72 hrs by MTT assay; assay type: functional
[8] = test system: HepG2; test: Cytotoxicity against human HepG2 cells assessed as cell growth inhibition measured after 72 hrs by coomassie brilliant blue staining based total cellular protein assay; assay type: functional
[9] = test system: MCF7; test: Induction of apoptosis in human MCF7 cells assessed as activation of cleaved PARP1 expression at 0.7 uM incubated for 24 hrs by Western blot analysis; assay type: functional, cell-based
[10] = Selectivity index, ratio of GI50 for human HaCaT cells to GI50 for human MCF7 cells; assay type: toxicity; conditions: HaCaT cells versus MCF7 cells, read-out: RatioGI50
[11] = test system: HCT-116; test: Cytotoxicity against human HCT-116 cells assessed as cell growth inhibition measured after 72 hrs by MTT assay; assay type: functional
[12] = test system: BALB/3T3; test: Induction of DNA damage in mouse BALB/3T3 cells assessed as increase in tail length incubated at 55 uM measured after 24 hrs by alkaline Comet assay; assay type: cell-based; conditions: balb/3t3, 24 h
[13] = test system: HCT-116; test: Induction of DNA damage in human HCT-116 cells assessed as increase in olive tail moment incubated at 0.7 uM measured after 24 hrs by alkaline Comet assay; assay type: functional
[14] = Selectivity index, ratio of GI50 for human HaCaT cells to GI50 for human HCT-116 cells; assay type: toxicity; conditions: HaCaT cells versus HCT-116 cells, read-out: RatioGI50
[15] = test system: HCT-116; test: Induction of DNA damage in human HCT-116 cells assessed as increase in tail length at 0.7 uM incubated measured after 24 hrs by alkaline Comet assay; assay type: functional, cell-based
[16] = Selectivity index, ratio of GI50 for human HaCaT cells to GI50 for human THP-1 cells
[17] = test system: BALB/3T3; test: (§2) Cytotoxicity against mouse BALB/3T3 cells assessed as cell growth inhibition measured after 72 hrs by neutral red uptake assay; assay type: cell-based; conditions: balb/3t3, 72 h
[18] = as §2; assay type: cell-based; conditions: BALB/3T3 cells
[19] = test system: A549; test: Cytotoxicity against human A549 cells assessed as cell growth inhibition measured after 72 hrs by MTT assay; assay type: functional
[20] = test system: MCF7; test: Induction of cell cycle arrest in human MCF7 cells assessed as decrease in phospho-Rb expression at 45 uM measured after 24 hrs by Western blot analysis; assay type: functional, cell-based
[21] = target: Mitogen-activated protein kinase; ERK1/ERK2 (Homo sapiens) (UniProt P27361+P28482); test: Inhibition of ERK1/2 phosphorylation in human HepG2 cells at 45 uM after 24 hrs by Western blotting analysis; assay type: cell-based
Chain of Mitogen-activated protein kinase; ERK1/ERK2 (Homo sapiens) (P27361 whole entry, looked up): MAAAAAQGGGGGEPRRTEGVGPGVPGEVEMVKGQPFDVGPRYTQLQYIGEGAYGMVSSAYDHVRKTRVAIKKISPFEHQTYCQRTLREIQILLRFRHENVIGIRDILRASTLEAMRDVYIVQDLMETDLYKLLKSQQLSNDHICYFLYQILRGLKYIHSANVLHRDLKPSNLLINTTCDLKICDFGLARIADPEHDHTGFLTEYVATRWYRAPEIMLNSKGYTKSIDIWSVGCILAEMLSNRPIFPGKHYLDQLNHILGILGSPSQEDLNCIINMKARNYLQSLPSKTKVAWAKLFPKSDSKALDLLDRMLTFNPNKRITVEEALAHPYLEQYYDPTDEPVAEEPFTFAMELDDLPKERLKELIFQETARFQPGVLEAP
Chain of Mitogen-activated protein kinase; ERK1/ERK2 (Homo sapiens) (P28482 whole entry, looked up): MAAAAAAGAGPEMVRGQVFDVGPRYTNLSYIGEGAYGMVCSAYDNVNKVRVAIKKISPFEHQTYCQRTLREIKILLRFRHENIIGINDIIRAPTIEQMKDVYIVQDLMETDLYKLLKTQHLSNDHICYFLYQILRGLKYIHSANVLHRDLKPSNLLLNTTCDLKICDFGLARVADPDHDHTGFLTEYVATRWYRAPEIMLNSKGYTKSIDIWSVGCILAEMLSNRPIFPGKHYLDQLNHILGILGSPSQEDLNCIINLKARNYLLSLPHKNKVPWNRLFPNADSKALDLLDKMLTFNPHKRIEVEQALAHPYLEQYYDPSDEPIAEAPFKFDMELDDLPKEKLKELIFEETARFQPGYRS

[22] = test system: HepG2; test: Induction of DNA damage in human HepG2 cells assessed as increase in tail length incubated at 0.7 uM measured after 24 hrs by alkaline Comet assay; assay type: functional
[23] = test system: BALB/3T3; test: (§3) Cytotoxicity against mouse BALB/3T3 cells assessed as cell growth inhibition measured after 24 hrs by LDH assay; assay type: cell-based; conditions: balb/3t3, 24 h
[24] = as §3; assay type: cell-based; conditions: BALB/3T3 cells
[25] = Selectivity index, ratio of GI50 for human HaCaT cells to GI50 for human A549 cells; assay type: toxicity; conditions: HaCaT cells versus A549 cells, read-out: RatioGI50
[26] = test system: BALB/3T3; test: Induction of DNA damage in mouse BALB/3T3 cells assessed as increase in olive tail moment incubated at 55 uM measured after 24 hrs by alkaline Comet assay; assay type: cell-based; conditions: balb/3t3, 24 h
[27] = test system: BALB/3T3; test: (§4) Cytotoxicity against mouse BALB/3T3 cells assessed as cell growth inhibition measured after 48 hrs by LDH assay; assay type: cell-based; conditions: balb/3t3, 48 h
[28] = as §4; assay type: cell-based; conditions: BALB/3T3 cells
[29] = test system: HepG2; test: Induction of DNA damage in human HepG2 cells assessed as increase in olive tail moment incubated at 0.7 uM measured after 24 hrs by alkaline Comet assay; assay type: functional
[30] = test system: HepG2; test: Cytotoxicity against human HepG2 cells assessed as cell growth inhibition measured after 72 hrs by neutral red uptake assay; assay type: functional
[31] = test system: BALB/3T3; test: (§5) Cytotoxicity against mouse BALB/3T3 cells assessed as cell growth inhibition measured after 24 hrs by coomassie brilliant blue staining based total cellular protein assay; conditions: balb/3t3, 24 h
[32] = as §5; conditions: BALB/3T3 cells
[33] = Cytotoxicity against human HaCaT cells assessed as cell growth inhibition measured after 72 hrs by MTT assay; assay type: cell-based
[34] = test system: HeLa; test: Cytotoxicity against human HeLa cells assessed as cell growth inhibition measured after 72 hrs by MTT assay; assay type: functional
[35] = Selectivity index, ratio of GI50 for mouse BALA/3T3 cells to GI50 for human HCT-116 cells; assay type: toxicity; conditions: BALA/3T3 cells versus HCT-116 cells, read-out: RatioGI50
[36] = test system: HepG2; test: Cytotoxicity against human HepG2 cells assessed as cell growth inhibition measured after 48 hrs by neutral red uptake assay; assay type: functional
[37] = Selectivity index, ratio of GI50 for mouse BALA/3T3 cells to GI50 for human HepG2 cells measured after 72 hrs by neutral red uptake assay; assay type: toxicity; conditions: BALA/3T3 cells versus HepG2 cells, read-out: Selectivity Index
[38] = test system: Salmon testes DNA; test: Displacement of methyl green from salmon sperm DNA at 10 uM measured after 2 hrs by fluorescence plate reader method relative to control; assay type: cell-based; conditions: Salmo salar, Spermatozoa
[39] = test system: WM793; test: Cytotoxicity against human WM793 cells assessed as cell growth inhibition measured after 72 hrs by MTT assay; assay type: functional
[40] = test system: BALB/3T3; test: (§6) Cytotoxicity against mouse BALB/3T3 cells assessed as cell growth inhibition measured after 48 hrs by neutral red uptake assay; assay type: cell-based; conditions: balb/3t3, 48 h
[41] = as §6; assay type: cell-based; conditions: BALB/3T3 cells
[42] = test system: HepG2; test: Induction of cell cycle arrest in human HepG2 cells assessed as effect on phospho-Chk2 expression at 45 uM measured after 24 hrs by Western blot analysis; assay type: functional, cell-based
[43] = Selectivity index, ratio of GI50 for mouse BALA/3T3 cells to GI50 for human HepG2 cells measured after 48 hrs by neutral red uptake assay; assay type: toxicity; conditions: BALA/3T3 cells versus HepG2 cells, read-out: Selectivity Index
[44] = test system: HepG2; test: Cytotoxicity against human HepG2 cells assessed as cell growth inhibition measured after 24 hrs by LDH assay; assay type: functional

With `COC(=O)c1[nH]c2ccc(F)cc2c1/C=C1\SC(=S)NC1=O` as the compound, how does the Activity [1] read?
Its Activity is “Active”.

What about the GI20 [2] of the same compound?
Its GI20 is 0.3 µM.

What about the GI80 [2] of the same compound?
Its GI80 is 79.4 µM.

What about the GI50 ([2]; Homo sapiens, HepG2) of the same compound?
Its GI50 is 16.3 µM.

What about the GI20 [3] of the same compound?
Its GI20 is 5.4 µM.

What about the GI80 [3] of the same compound?
Its GI80 is greater than 100 µM.

And the GI50 at 24 h [4]?
The GI50 at 24 h was greater than 100 µM.

And the Activity [5]?
Its Activity is “Active”.

What about the Activity [6] of the same compound?
Its Activity is “inactive”.

And the GI50 [7]?
Its GI50 is 62.4 µM.

What about the GI20 [8] of the same compound?
The GI20 was 0.08 µM.

And the GI80 [8]?
Its GI80 is greater than 100 µM.

What about the GI50 ([8]; Homo sapiens, HepG2) of the same compound?
Its GI50 is 35.6 µM.

And the Activity [9]?
The Activity was “Active”.

What about the selectivity ratio [10] of the same compound?
Its selectivity ratio is 99.4.

And the GI50 [11]?
Its GI50 is 0.8 µM.

What about the Activity [12] of the same compound?
The Activity was 8.4%.

And the Activity [13]?
The Activity was 3.1.

What about the selectivity ratio [14] of the same compound?
The selectivity ratio was 86.9.

And the Activity [15]?
The Activity was “Active”.

What about the RatioGI50 [16] of the same compound?
Its RatioGI50 is 1.11.

What about the GI20 [17] of the same compound?
The GI20 was 0.7 µM.

And the GI80 [17]?
Its GI80 is greater than 100 µM.

And the GI50 at 72 h [18]?
The GI50 at 72 h was 51.5 µM.

And the GI50 [19]?
Its GI50 is 9.7 µM.

What about the Activity [20] of the same compound?
The Activity was “Active”.

And the inhibition [21]?
The inhibition was “inactive”.

And the Activity [22]?
Its Activity is 26.2%.

What about the GI20 [23] of the same compound?
The GI20 was greater than 100 µM.

And the GI80 [23]?
The GI80 was greater than 100 µM.

And the GI50 at 24 h [24]?
Its GI50 at 24 h is greater than 100 µM.

And the selectivity ratio [25]?
Its selectivity ratio is 7.17.

And the Activity [26]?
The Activity was 3.5.

What about the GI20 [27] of the same compound?
Its GI20 is 16.4 µM.

What about the GI80 [27] of the same compound?
Its GI80 is greater than 100 µM.

What about the GI50 at 48 h [28] of the same compound?
Its GI50 at 48 h is 89.7 µM.

And the Activity [29]?
The Activity was 13.2.

What about the GI20 [30] of the same compound?
The GI20 was less than 0.01 µM.

What about the GI80 [30] of the same compound?
The GI80 was 59.6 µM.

And the GI50 ([30]; Homo sapiens, HepG2)?
Its GI50 is 7.5 µM.

What about the GI20 [31] of the same compound?
The GI20 was 6.1 µM.

What about the GI80 [31] of the same compound?
Its GI80 is greater than 100 µM.

What about the GI50 at 24 h [32] of the same compound?
Its GI50 at 24 h is greater than 100 µM.

What about the GI50 at 72 h [33] of the same compound?
The GI50 at 72 h was 98.3 µM.

What about the GI50 [34] of the same compound?
Its GI50 is 49.3 µM.

What about the selectivity ratio [35] of the same compound?
The selectivity ratio was 86.9.

And the GI20 [36]?
The GI20 was 0.06 µM.

What about the GI80 [36] of the same compound?
Its GI80 is 73.5 µM.

And the GI50 ([36]; Homo sapiens, HepG2)?
The GI50 was 24.5 µM.

And the selectivity ratio at 72 h [37]?
The selectivity ratio at 72 h was 8.9.

What about the Activity [38] of the same compound?
Its Activity is 5.4%.

What about the GI50 [39] of the same compound?
The GI50 was 80.4 µM.

And the GI20 [40]?
The GI20 was 2.4 µM.

And the GI80 [40]?
Its GI80 is greater than 100 µM.

What about the GI50 at 48 h [41] of the same compound?
Its GI50 at 48 h is greater than 100 µM.

And the Activity [42]?
Its Activity is “inactive”.

What about the selectivity ratio at 48 h [43] of the same compound?
Its selectivity ratio at 48 h is 4.1.

And the GI20 [44]?
Its GI20 is less than 0.01 µM.

And the GI80 [44]?
The GI80 was 20.3 µM.

And the GI50 ([44]; Homo sapiens, HepG2)?
Its GI50 is 0.31 µM.
